Source: US8309558B2, “Compounds for the treatment of hepatitis C” (Bristol-Myers Squibb Company, priority 2008, dated 2012)
Read-outs that look alike come from different tables or passages of the source.

Legend:
[1] = molecular target: T1, HCV NS5B RdRp genotype 1b (Hepatitis C virus genotype 1b, UniProt Q9WMX2); assay: Standard HCV NS5B RdRp enzyme assay; format: biochemical; details: HCV NS5B RdRp genotype 1b, read-out: IC50
T1 construct: The protein was expressed with an 18 amino acid C-terminal truncation to enhance the solubility; made in house; host or cells: E. coli BL21(DE3), pET21a vector
Summary of the method: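 Radiometric SPA measuring 3H-UMP incorporation on polyA/biotin-oligo-dT12 (6 nM/180 nM), 0.29 μM total UTP. Enzyme: NS5B 1b lacking last 18 residues, 28 nM final, 30° C for 60 min in 20 mM Hepes pH 7.5, 2.5 mM MgCl2, 2% DMSO. IC50 from seven-point curves.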

HCV replicon cells = assay: HCV replicon FRET / luciferase assay (96-well plates); format: cell-based; details: Hepatitis C virus, HCV replicon, read-out: EC50
Summary of the method: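 HCV replicon cells (with or without Renilla luciferase reporter) were plated with titrated compounds at 37 °C. After Alamar blue toxicity reading, cells were lysed in reagent containing 20 μM EDANS/DABCYL NS3 protease FRET peptide and 150 mM NaCl, read kinetically at 340/490 nm, or assayed by Dual-Glo luciferase.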

T1 sequence (Q9WMX2 2420-2992): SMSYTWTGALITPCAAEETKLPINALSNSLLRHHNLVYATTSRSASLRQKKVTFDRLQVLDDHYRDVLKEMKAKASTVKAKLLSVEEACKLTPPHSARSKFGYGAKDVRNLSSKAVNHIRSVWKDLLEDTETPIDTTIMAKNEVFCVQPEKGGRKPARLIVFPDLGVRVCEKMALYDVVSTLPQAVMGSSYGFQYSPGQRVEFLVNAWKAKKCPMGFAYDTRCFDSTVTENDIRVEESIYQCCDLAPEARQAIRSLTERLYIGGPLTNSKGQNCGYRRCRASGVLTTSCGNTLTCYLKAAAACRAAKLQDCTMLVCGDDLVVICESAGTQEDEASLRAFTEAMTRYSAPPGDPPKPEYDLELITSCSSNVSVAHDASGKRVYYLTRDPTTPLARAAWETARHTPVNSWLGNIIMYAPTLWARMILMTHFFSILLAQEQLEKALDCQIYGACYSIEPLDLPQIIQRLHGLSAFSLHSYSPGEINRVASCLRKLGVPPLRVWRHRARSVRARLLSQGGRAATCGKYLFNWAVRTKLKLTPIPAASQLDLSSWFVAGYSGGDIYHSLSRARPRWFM

SMILES	IC50 ([1]; Table 1b)	EC50 (HCV replicon cells; Table 1b)	IC50 ([1]; Table 1d (class symbols))	EC50 (HCV replicon cells; 24 h, Table 1d (class symbols))
CNC(=O)c1c(-c2ccc(F)cc2)oc2ccc(-c3cc(NC(=O)OC(C)(C)C)cc(C(=O)NCC(C)C)c3)cc12	250 to 1000 nM	< 250 nM		
CNC(=O)c1c(-c2ccc(F)cc2)oc2cc([N+](=O)[O-])c(-c3cccc(C(=O)NCC(C)C)c3)cc12	< 250 nM	< 250 nM		
CNC(=O)c1c(-c2ccc(F)cc2)oc2ccc(-c3cc(C(=O)NCC(C)C)ccc3OC3CCCC3)cc12	> 10000 nM	1000 to 10000 nM		
CNC(=O)c1c(-c2ccc(F)cc2)oc2ccc(-c3ccc(-c4ccccc4Cl)c(C(=O)NCC(C)C)c3)cc12	< 250 nM	< 250 nM		
CNC(=O)c1c(-c2ccc(F)cc2)oc2ccc(-c3ccc(-c4ccccc4C(N)=O)c(C(=O)NCC(C)C)c3)cc12	< 250 nM	< 250 nM		
CNC(=O)c1c(-c2ccc(F)cc2)oc2ccc(-c3ccc(-c4ccccc4NC(C)=O)c(C(=O)NCC(C)C)c3)cc12	250 to 1000 nM	1000 to 10000 nM		
CNC(=O)c1c(-c2ccc(F)cc2)oc2ccc(-c3ccc(-c4ccccc4COC)c(C(=O)NCC(C)C)c3)cc12	250 to 1000 nM	< 250 nM		
CNC(=O)c1c(-c2ccc(F)cc2)oc2ccc(-c3ccc(-c4cccc(CC#N)c4)c(C(=O)NCC(C)C)c3)cc12	< 250 nM	< 250 nM		
CCNC(=O)c1cccc(-c2ccc(-c3ccc4oc(-c5ccc(F)cc5)c(C(=O)NC)c4c3)cc2C(=O)NCC(C)C)c1	< 250 nM	< 250 nM		
CNC(=O)c1c(-c2ccc(F)cc2)oc2ccc(-c3ccc(-c4cccc(-c5ccccc5)c4)c(C(=O)NCC(C)C)c3)cc12	> 10000 nM	250 to 1000 nM		
CNC(=O)c1c(-c2ccc(F)cc2)oc2ccc(-c3cccc(-c4nc(C(C)C)no4)c3)cc12	> 1390 nM	250 to 1000 nM		
CNC(=O)c1c(-c2ccc(F)cc2)oc2ccc(-c3cccc(-c4nc(-c5ccccc5)no4)c3)cc12	> 10000 nM	< 250 nM		
CNC(=O)c1c(-c2ccc(F)cc2)oc2ccc(-c3ccc(F)c(C(=O)NC(C)(C)C)c3)cc12	< 250 nM	< 250 nM		
CNC(=O)c1c(-c2ccc(F)cc2)oc2cc(NS(C)(=O)=O)c(-c3cc(C(=O)NCC(C)C)ccc3OC)cc12	< 250 nM	< 250 nM		
CNC(=O)c1c(-c2ccc(F)cc2)oc2ccc(-c3cccc(-c4nc(-c5ccccc5)c[nH]4)c3)cc12	250 to 1000 nM	< 250 nM		
CNC(=O)c1c(-c2ccc(F)cc2)oc2ccc(-c3cccc(C(=O)NC(C)(C)C(=O)Nc4nncs4)c3)cc12	< 250 nM	< 250 nM		
CNC(=O)c1c(-c2ccc(F)cc2)oc2ccc(-c3cccc(-c4ccn[nH]4)c3)cc12	1000 to 10000 nM	1000 to 10000 nM		
CNC(=O)c1c(-c2ccc(F)cc2)oc2ccc(-c3cccc(-c4ccnn4Cc4ccccc4)c3)cc12	< 250 nM	< 250 nM		
CNC(=O)c1c(-c2ccc(F)cc2)oc2ccc(-c3c(C)ccc(C(=O)O)c3OC)cc12	1000 to 10000 nM	> 10000 nM		
CNC(=O)c1c(-c2ccc(F)cc2)oc2ccc(-c3cccc(C(=O)NC(C)(C)C(=O)Nc4cc(C)[nH]n4)c3)cc12	< 250 nM	< 250 nM		

SMILES	IC50 ([1]; Table 1b)	EC50 (HCV replicon cells; Table 1b)	IC50 ([1]; Table 1d (class symbols))	EC50 (HCV replicon cells; 24 h, Table 1d (class symbols))
CNC(=O)c1c(-c2ccc(F)cc2)oc2ccc(-c3cccc(C(=O)NC(C)(C)C(=O)Nc4cc(C)no4)c3)cc12	< 250 nM	< 250 nM		
CNC(=O)c1c(-c2ccc(F)cc2)oc2ccc(-c3cccc(C(=O)NC(C)(C)C(=O)Nc4cc(C)on4)c3)cc12	< 250 nM	< 250 nM		
CNC(=O)c1c(-c2ccc(F)cc2)oc2ccc(-c3cccc(C(=O)NC(C)(C)C(=O)Nc4nccnn4)c3)cc12	< 250 nM	< 250 nM		
CCC(NC(=O)c1ccc(F)c(-c2cc3c(C(=O)NC)c(-c4ccc(F)cc4)oc3cc2N)c1)c1ccccc1 (centres unmarked)	< 250 nM	< 250 nM		
CNC(=O)c1c(-c2ccc(F)cc2)oc2ccc(-c3cc(C(=O)NC4(c5nnc(C(C)C)[nH]5)CC4)ccc3C)cc12	< 250 nM	< 250 nM		
CNC(=O)c1c(-c2ccc(F)cc2)oc2ccc(-c3cc(C(=O)NC4(c5nnc(-c6ccccn6)[nH]5)CC4)ccc3C)cc12	< 250 nM	< 250 nM		
CNC(=O)c1c(-c2ccc(F)cc2)oc2ccc(-c3cc(C(=O)NC4(c5nnc(C(F)(F)F)[nH]5)CC4)ccc3C)cc12	< 250 nM	< 250 nM		
CNC(=O)c1c(-c2ccc(F)cc2)oc2ccc(-c3cc(C(=O)NC4(c5coc(C)n5)CC4)ccc3C)cc12	< 250 nM	< 250 nM		
CNC(=O)c1c(-c2ccc(F)cc2)oc2ccc(-c3cc(C(=O)NC4(c5ccccn5)CC4)ccc3OCCN)cc12	< 20 nM	< 250 nM		
CNC(=O)c1c(-c2ccc(F)cc2)oc2ccc(-c3cc(C(=O)NC4(c5ccccn5)CC4)c(OC(C)C)cc3C)cc12	< 250 nM	< 250 nM		
CNC(=O)c1c(-c2ccc(F)cc2)oc2ccc(-c3ccc(-c4ccccc4C(N)=O)c(C(=O)NC4(c5ccccn5)CC4)c3)cc12	< 250 nM	< 250 nM		
CNC(=O)c1c(-c2ccc(F)cc2)oc2ccc(-c3cc(C(=O)NC4(c5ccccn5)CC4)ccc3OCCO)cc12	< 250 nM	< 250 nM		
CNC(=O)c1c(-c2ccc(F)cc2)oc2ccc(-c3cc(C(=O)NC4(c5ccccn5)CC4)cc(O)c3C)cc12	< 250 nM	< 250 nM		
CNC(=O)c1c(-c2ccc(F)cc2)oc2ccc(-c3c(C)ccc(C(=O)NC4(c5ccccn5)CC4)c3F)cc12	< 20 nM	< 250 nM		
CNC(=O)c1c(-c2ccc(F)cc2)oc2ccc(-c3cc(C(=O)NC(C)(C)C)c(OC)cc3C)c(F)c12	< 250 nM	< 250 nM		
CCC(NC(=O)c1cc(-c2ccc3oc(-c4ccc(F)cc4)c(C(=O)NC)c3c2F)c(C)cc1OC)c1ncccn1 (centres unmarked)	< 250 nM	< 250 nM		
CNC(=O)c1c(-c2ccc(F)cc2)oc2ccc(-c3cc(C(=O)NC4(c5ncccn5)CC4)c(OC)cc3C)c(F)c12	< 250 nM	< 250 nM		
CNC(=O)c1c(-c2ccc(F)cc2)oc2ccc(-c3cc(C(=O)NC4(c5ncccn5)CC4)c(OC)cc3C)cc12	< 250 nM	< 250 nM		
CNC(=O)c1c(-c2ccc(F)cc2)oc2ccc(-c3cc(C(=O)NC4(c5ccn(C)n5)CC4)ccc3C)cc12	< 20 nM	< 250 nM		
CNC(=O)c1c(-c2ccc(F)cc2)oc2ccc(-c3cc(C(=O)NC4(c5coc(C)n5)CC4)c(OC)cc3C)cc12	< 250 nM	< 250 nM		

SMILES	IC50 ([1]; Table 1b)	EC50 (HCV replicon cells; Table 1b)	IC50 ([1]; Table 1d (class symbols))	EC50 (HCV replicon cells; 24 h, Table 1d (class symbols))
CNC(=O)c1c(-c2ccc(F)cc2)oc2ccc(-c3cc(C(=O)NC4(c5ccn(C)n5)CC4)c(OC)cc3C)cc12	< 250 nM	< 250 nM		
CNC(=O)c1c(-c2ccc(F)cc2)oc2ccc(-c3cc(C(=O)NC4(c5cc(C)on5)CC4)c(OC)cc3C)cc12	< 250 nM	< 250 nM		
CNC(=O)c1c(-c2ccc(F)cc2)oc2ccc(-c3cc(C(=O)NC4(c5ccccn5)CC4)c(-c4ccccc4Cl)cc3C)cc12	< 250 nM	< 250 nM		
CNC(=O)c1c(-c2ccc(F)cc2)oc2ccc(-c3cc(C(=O)O)c(C)cc3C)c(F)c12	1000 to 10000 nM	> 10000 nM		
CNC(=O)c1c(-c2ccc(F)cc2)oc2ccc(-c3cc(C(=O)NC4(c5ccccn5)CC4)c(OC)cc3OCC(N)=O)cc12	< 20 nM	< 250 nM		
CNC(=O)c1c(-c2ccc(F)cc2)oc2ccc(-c3cc(C(=O)NC4(c5ncccn5)CC4)c(C)cc3C)c(F)c12	250 to 1000 nM	< 250 nM		
CNC(=O)c1c(-c2ccc(F)cc2)oc2ccc(-c3cc(C(=O)NC4(c5ncccn5)CC4)c(C)cc3C)cc12	< 250 nM	< 250 nM		
CNC(=O)c1c(-c2ccc(F)cc2)oc2ccc(-c3cc(C(=O)NC4(c5ncc(C)o5)CC4)ccc3C)cc12			< 20 nM	1 to 250 nM
CNC(=O)c1c(-c2ccc(F)cc2)oc2ccc(-c3cc(C(=O)NC4(c5ocnc5C)CC4)c(OC)cc3C)cc12			1 to 250 nM	1 to 250 nM
CNC(=O)c1c(-c2ccc(F)cc2)oc2ccc(-c3cc(C(=O)NC4(c5ncc(C)o5)CC4)c(OC)cc3C)cc12			< 20 nM	1 to 250 nM
CNC(=O)c1c(-c2ccc(F)cc2)oc2ccc(-c3cc(C(=O)NC4(c5ccccn5)CC4)c(OCC(N)=O)cc3C)cc12			< 20 nM	1 to 250 nM
CCOc1cc(C)c(-c2ccc3oc(-c4ccc(F)cc4)c(C(=O)NC)c3c2)cc1C(=O)NC1(c2ccccn2)CC1			1 to 250 nM	1 to 250 nM
CCCOc1cc(C)c(-c2ccc3oc(-c4ccc(F)cc4)c(C(=O)NC)c3c2)cc1C(=O)NC1(c2ccccn2)CC1			1 to 250 nM	1 to 250 nM
CNC(=O)c1c(-c2ccc(F)cc2)oc2ccc(-c3cc(C(=O)NC4(c5ccccn5)CC4)c(OCC(C)C)cc3C)cc12			1 to 250 nM	1 to 250 nM
CNC(=O)c1c(-c2ccc(F)cc2)oc2ccc(-c3cc(C(=O)NC4(c5ccccn5)CC4)c(OCC4CC4)cc3C)cc12			1 to 250 nM	1 to 250 nM
CNC(=O)c1c(-c2ccc(F)cc2)oc2ccc(-c3cc(C(=O)NC4(c5ccccn5)CC4)c(OCCC(N)=O)cc3C)cc12			< 20 nM	1 to 250 nM
CNC(=O)c1c(-c2ccc(F)cc2)oc2ccc(-c3cc(C(=O)NC4(c5cnc(C)cn5)CC4)ccc3C)c(F)c12			1 to 250 nM	1 to 250 nM
C#CCOc1cc(C)c(-c2ccc3oc(-c4ccc(F)cc4)c(C(=O)NC)c3c2)cc1C(=O)NC1(c2ccccn2)CC1			1 to 250 nM	1 to 250 nM
